US6548472B1, “Liquid cleaning compositions comprising 2-bromo-2-nitro-1,3 propanediol” (Colgate-Palmolive Co., priority 2001, dated 2003)

Tested on: mixture of bacteria
Assay: D-value method test (rapid preservation screening, bacteria growth detection time by conductometry)
Assay type: cell-based
Settings: FIG. 1; sodium gluconate (formula B) compared with Na4EDTA (formula A, reference)
From the text: This D-value method test is used for rapid screening. It compares the new product to a reference which gives satisfactory result in real life conditions and which must have a formula composition as close as possible to the tested product (in this example EDTA has been replaced by sodium gluconate). The tested product and the reference are inoculated by a mixture of bacteria. Once they have been inoculated the bacteria slowly disappear due to the beneficial influence of the preservative system. The longer the contact time, the lower the residual bacteria number. The better the preservation system, the lower the residual bacteria number at a given time. The inocculated products are then sampled at different times and the samples are diluted by a nutriant which helps bacteria proliferation. The time needed to detect bacteria in the diluted sample is then measured by conductometry (bacteria growth generally leads to a increase of conductivity). The longer the detection time in sample diluted by nutrient, the lower the residual alive bacteria number after sampling, the better the preservative system.

## O=C([O-])[C@H](O)[C@@H](O)[C@H](O)[C@H](O)CO.[Na+] [sodium gluconate]
  D bacteria values: Myacid BT potentiator performance: superior Myacid BT potentiator
